Legend:
Assay in all cases: biochemical
Type in all cases: biochemical
panel of 391 kinases [1] = target: panel of 391 kinases (Homo sapiens, UniProt Q9NYL2); details: ZAK/MLTK, MK-28 1 µM, ATP 1 µM
panel of 391 kinases [2] = target: panel of 391 kinases (Homo sapiens, UniProt Q8TF76); details: Haspin, MK-28 1 µM, ATP 1 µM
panel of 391 kinases [3] = target: panel of 391 kinases (Homo sapiens, UniProt Q9Y2K2); details: SIK3, MK-28 1 µM, ATP 1 µM
panel of 391 kinases [4] = target: panel of 391 kinases (Homo sapiens, UniProt Q15120); details: kinase PDK3/PDHK3, compound at 1 µM, single dose in duplicates, 1 µM ATP
panel of 391 kinases [5] = target: panel of 391 kinases (Homo sapiens, UniProt Q9BXA7); details: STK22D/TSSK1, MK-28 1 µM, ATP 1 µM
panel of 391 kinases [6] = target: panel of 391 kinases (Homo sapiens, UniProt P37023); details: ALK1/ACVRL1, MK-28 1 µM, ATP 1 µM
panel of 391 kinases [7] = target: panel of 391 kinases (Homo sapiens, UniProt P48730); details: CK1d, MK-28 1 µM, ATP 1 µM
panel of 391 kinases [8] = target: panel of 391 kinases (Homo sapiens, UniProt P12931); details: c-Src, MK-28 1 µM, ATP 1 µM
panel of 391 kinases [9] = target: panel of 391 kinases (Homo sapiens, UniProt Q02763); details: TIE2/TEK, MK-28 1 µM, ATP 1 µM
panel of 391 kinases [10] = target: panel of 391 kinases (Homo sapiens, UniProt Q9UPE1); details: MSSK1/STK23, MK-28 1 µM, ATP 1 µM
panel of 391 kinases [11] = target: panel of 391 kinases (Homo sapiens, UniProt Q07002); details: CDK18/cyclin Y (PCTK3), MK-28 1 µM, ATP 1 µM
panel of 391 kinases [12] = target: panel of 391 kinases (Homo sapiens, UniProt P08581); details: c-MET, MK-28 1 µM, ATP 1 µM
panel of 391 kinases [13] = target: panel of 391 kinases (Homo sapiens, UniProt Q13153); details: PAK1, MK-28 1 µM, ATP 1 µM
panel of 391 kinases [14] = target: panel of 391 kinases (Homo sapiens, UniProt Q56UN5); details: YSK4/MAP3K19, MK-28 1 µM, ATP 1 µM
panel of 391 kinases [15] = target: panel of 391 kinases (Homo sapiens, UniProt Q96KB5); details: PBK/TOPK, MK-28 1 µM, ATP 1 µM
panel of 391 kinases [16] = target: panel of 391 kinases (Homo sapiens, UniProt P16591); details: FER, MK-28 1 µM, ATP 1 µM
panel of 391 kinases [17] = target: panel of 391 kinases (Homo sapiens, UniProt Q86UX6); details: STK32C/YANK3, MK-28 1 µM, ATP 1 µM
panel of 391 kinases [18] = target: panel of 391 kinases (Homo sapiens, UniProt Q96RR4); details: CAMKK2, MK-28 1 µM, ATP 1 µM
panel of 391 kinases [19] = target: panel of 391 kinases (Homo sapiens, UniProt Q00537); details: CDK17/cyclin Y (PCTK2), MK-28 1 µM, ATP 1 µM
panel of 391 kinases [20] = target: panel of 391 kinases (Homo sapiens, UniProt Q96BR1); details: SGK3/SGKL, MK-28 1 µM, ATP 1 µM
panel of 391 kinases [21] = target: panel of 391 kinases (Homo sapiens, UniProt P05771); details: PKCb1, MK-28 1 µM, ATP 1 µM
panel of 391 kinases [22] = target: panel of 391 kinases (Homo sapiens, UniProt Q92918); details: HPK1/MAP4K1, MK-28 1 µM, ATP 1 µM
panel of 391 kinases [23] = target: panel of 391 kinases (Homo sapiens, UniProt P42684); details: ABL2/ARG, MK-28 1 µM, ATP 1 µM
panel of 391 kinases [24] = target: panel of 391 kinases (Homo sapiens, UniProt O14920); details: IKKb/IKBKB, MK-28 1 µM, ATP 1 µM
panel of 391 kinases [25] = target: panel of 391 kinases (Homo sapiens, UniProt Q6XUX3); details: RIPK5, MK-28 1 µM, ATP 1 µM
panel of 391 kinases [26] = target: panel of 391 kinases (Homo sapiens, UniProt Q00536); details: CDK16/cyclin Y (PCTAIRE), MK-28 1 µM, ATP 1 µM
[27] = read-out: % Enzyme Activity (relative to DMSO controls)

Structure (SMILES): CN(/N=C\c1ccc(O)c(O)c1)c1nc(-c2ccccc2)cc(-c2ccccc2)n1 [MK-28]
- % Enzyme Activity (relative to DMSO controls) (panel of 391 kinases [1]): 104.97%
- remaining activity at 1 µM (panel of 391 kinases [1]; [27]): 105%
- % Enzyme Activity (relative to DMSO controls) (panel of 391 kinases [2]): 102.02%
- remaining activity at 1 µM (panel of 391 kinases [2]; [27]): 116%
- % Enzyme Activity (relative to DMSO controls) (panel of 391 kinases [3]): 101.97%
- remaining activity at 1 µM (panel of 391 kinases [3]; [27]): 105%
- % Enzyme Activity (relative to DMSO controls) (panel of 391 kinases [4]): 102.25%
- remaining activity at 1 µM (panel of 391 kinases [4]; [27]): 105%
- % Enzyme Activity (relative to DMSO controls) (panel of 391 kinases [5]): 91.99%
- remaining activity at 1 µM (panel of 391 kinases [5]; [27]): 93.3%
- % Enzyme Activity (relative to DMSO controls) (panel of 391 kinases [6]): 91.36%
- remaining activity at 1 µM (panel of 391 kinases [6]; [27]): 94.7%
- % Enzyme Activity (relative to DMSO controls) (panel of 391 kinases [7]): 95.42%
- remaining activity at 1 µM (panel of 391 kinases [7]; [27]): 99.5%
- % Enzyme Activity (relative to DMSO controls) (panel of 391 kinases [8]): 96.32%
- remaining activity at 1 µM (panel of 391 kinases [8]; [27]): 97.7%
- % Enzyme Activity (relative to DMSO controls) (panel of 391 kinases [9]): 98.55%
- remaining activity at 1 µM (panel of 391 kinases [9]; [27]): 99%
- % Enzyme Activity (relative to DMSO controls) (panel of 391 kinases [10]): 107.79%
- remaining activity at 1 µM (panel of 391 kinases [10]; [27]): 108%
- % Enzyme Activity (relative to DMSO controls) (panel of 391 kinases [11]): 109.27%
- remaining activity at 1 µM (panel of 391 kinases [11]; [27]): 111%
- % Enzyme Activity (relative to DMSO controls) (panel of 391 kinases [12]): 96.37%
- remaining activity at 1 µM (panel of 391 kinases [12]; [27]): 102%
- % Enzyme Activity (relative to DMSO controls) (panel of 391 kinases [13]): 100.75%
- remaining activity at 1 µM (panel of 391 kinases [13]; [27]): 102%
- % Enzyme Activity (relative to DMSO controls) (panel of 391 kinases [14]): 104.21%
- remaining activity at 1 µM (panel of 391 kinases [14]; [27]): 106%
- % Enzyme Activity (relative to DMSO controls) (panel of 391 kinases [15]): 93.64%
- remaining activity at 1 µM (panel of 391 kinases [15]; [27]): 94.2%
- % Enzyme Activity (relative to DMSO controls) (panel of 391 kinases [16]): 101.21%
- remaining activity at 1 µM (panel of 391 kinases [16]; [27]): 102%
- % Enzyme Activity (relative to DMSO controls) (panel of 391 kinases [17]): 104.62%
- remaining activity at 1 µM (panel of 391 kinases [17]; [27]): 112%
- % Enzyme Activity (relative to DMSO controls) (panel of 391 kinases [18]): 93.50%
- remaining activity at 1 µM (panel of 391 kinases [18]; [27]): 97.2%
- % Enzyme Activity (relative to DMSO controls) (panel of 391 kinases [19]): 104.03%
- remaining activity at 1 µM (panel of 391 kinases [19]; [27]): 109%
- % Enzyme Activity (relative to DMSO controls) (panel of 391 kinases [20]): 103.83%
- remaining activity at 1 µM (panel of 391 kinases [20]; [27]): 105%
- % Enzyme Activity (relative to DMSO controls) (panel of 391 kinases [21]): 108.67%
- remaining activity at 1 µM (panel of 391 kinases [21]; [27]): 111%
- % Enzyme Activity (relative to DMSO controls) (panel of 391 kinases [22]): 114.23%
- remaining activity at 1 µM (panel of 391 kinases [22]; [27]): 117%
- % Enzyme Activity (relative to DMSO controls) (panel of 391 kinases [23]): 99.46%
- remaining activity at 1 µM (panel of 391 kinases [23]; [27]): 100%
- % Enzyme Activity (relative to DMSO controls) (panel of 391 kinases [24]): 96.13%
- remaining activity at 1 µM (panel of 391 kinases [24]; [27]): 96.9%
- % Enzyme Activity (relative to DMSO controls) (panel of 391 kinases [25]): 103.40%
- remaining activity at 1 µM (panel of 391 kinases [25]; [27]): 105%
- % Enzyme Activity (relative to DMSO controls) (panel of 391 kinases [26]): 113.27%
- remaining activity at 1 µM (panel of 391 kinases [26]; [27]): 119%

— article PMC7181660, “A novel specific PERK activator reduces toxicity and extends survival in Huntington's disease models” (Scientific Reports, 2020)
